# Results reported in patent publication US8791266B2, “Thyroid hormone β receptor agonist” (Mitsubishi Tanabe Pharma Corporation, priority 2009, dated 2014).
# Experiments:
# [1] = molecular target: T1, Human Thyroid Hormone Receptor β1 (TRβ1) (Homo sapiens, UniProt P10828); experiment: Transcription activation test of human thyroid hormone receptor β1 (luciferase reporter in 293T cells); format: cell-based; settings: EC50 of transcription activation on TRβ1, 293T cells, luciferase activity after 24 hr; read-out: TRβ
# T1 construct: expressed in transfected cells; host or cells: 293T cells
# T1 sequence (P10828 1-461): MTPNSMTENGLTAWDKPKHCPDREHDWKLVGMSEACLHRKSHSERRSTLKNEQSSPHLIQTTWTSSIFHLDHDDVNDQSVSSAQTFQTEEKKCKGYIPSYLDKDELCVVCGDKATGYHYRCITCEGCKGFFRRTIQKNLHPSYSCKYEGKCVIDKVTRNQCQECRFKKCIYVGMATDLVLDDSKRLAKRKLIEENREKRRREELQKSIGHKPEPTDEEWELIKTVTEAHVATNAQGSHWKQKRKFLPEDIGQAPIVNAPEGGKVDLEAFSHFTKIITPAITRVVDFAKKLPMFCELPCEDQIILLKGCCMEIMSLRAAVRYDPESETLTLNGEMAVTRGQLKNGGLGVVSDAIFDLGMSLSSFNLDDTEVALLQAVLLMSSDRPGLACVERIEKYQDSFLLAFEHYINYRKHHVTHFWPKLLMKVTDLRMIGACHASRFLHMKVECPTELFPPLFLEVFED
# Summary of the method: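 293T cells transiently co-transfected with human TRα1 or TRβ1 expression vector plus thyroid hormone response element firefly luciferase reporter, switched to 0.1% charcoal/dextran-treated FBS medium. Luciferase measured 24 h after compound; EC50 and maximal activity expressed relative to T3 maximum as 100.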
# [2] = molecular target: T2, Human Thyroid Hormone Receptor α1 (TRα1) (Homo sapiens, UniProt P10827); experiment: Transcription activation test of human thyroid hormone receptor α1 (luciferase reporter in 293T cells); format: cell-based; settings: ratio TRα/TRβ of the transcription activation EC50 values
# T2 construct: expressed in transfected cells; host or cells: 293T cells
# T2 sequence (P10827 1-410 isoform P10827-2): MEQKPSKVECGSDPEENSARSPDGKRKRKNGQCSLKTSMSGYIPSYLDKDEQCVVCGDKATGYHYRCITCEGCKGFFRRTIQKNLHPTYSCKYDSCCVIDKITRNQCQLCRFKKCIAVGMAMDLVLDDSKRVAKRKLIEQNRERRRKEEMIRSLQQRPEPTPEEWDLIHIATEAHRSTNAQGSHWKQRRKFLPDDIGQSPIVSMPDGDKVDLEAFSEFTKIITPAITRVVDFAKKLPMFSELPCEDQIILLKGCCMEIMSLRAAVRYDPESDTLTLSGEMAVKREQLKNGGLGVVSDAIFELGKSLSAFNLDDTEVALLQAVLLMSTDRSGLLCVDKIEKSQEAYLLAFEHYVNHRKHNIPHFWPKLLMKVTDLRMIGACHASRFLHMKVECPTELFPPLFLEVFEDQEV
Structure (SMILES),EC50 [1] [nM],selectivity (TRα/TRβ) [2]
"COCC1(c2nc(Cc3c(C)cc(OCc4noc(=O)[nH]4)c(F)c3C)ccc2O)CCCCC1 [Example 268, 3-{[2-fluoro-4-({5-hydroxy-6-[1-(methoxymethyl)cyclohexyl]pyridin-2-yl}methyl)-3,5-dimethylphenoxy]methyl}-1,2,4-oxadiazol-5(4H)-one]",1,B (2<(TRα/TRβ)<5)
"Cc1cc(CC(=O)O)c(C)c(C)c1Cc1ccc(O)c(C2CCCCC2)n1 [Example 41, {4-[(6-cyclohexyl-5-hydroxypyridin-2-yl)methyl]-2,3,5-trimethylphenyl}acetic acid]",4,B (2<(TRα/TRβ)<5)
Cc1cc(NC(=O)CC(=O)O)c(Cl)c(C)c1Cc1ccc(O)c(C2CCCCC2)n1 [Example 54],6,A (5<(TRα/TRβ))
"Cc1cc(CCC(=O)O)c(C)c(C)c1Cc1ccc(O)c(C2CCCCC2)n1 [Example 26, 3-{4-[(6-cyclohexyl-5-hydroxypyridin-2-yl)methyl]-2,3,5-trimethylphenyl}propanoic acid]",6,C (2>(TRα/TRβ))
